In patent publication US8217065B2, “Organic compounds” (Novartis AG, priority 2007, dated 2012):

These compounds were tested against T1, human DGAT1 (Homo sapiens, UniProt O75907) (assay: DGAT1 enzyme inhibition assay (Sf9 membrane preparation, LC/MS/MS readout)). Conditions: membrane preparation from Sf9 cells overexpressing human (His)6DGAT1; 10-point, 3-fold dose response; read-out: IC50 (inhibitory activity to human DGAT1).
T1 construct: (His)6; made in house; host or cells: Sf9 insect cells (membrane preparation)
T1 sequence (O75907 1-488): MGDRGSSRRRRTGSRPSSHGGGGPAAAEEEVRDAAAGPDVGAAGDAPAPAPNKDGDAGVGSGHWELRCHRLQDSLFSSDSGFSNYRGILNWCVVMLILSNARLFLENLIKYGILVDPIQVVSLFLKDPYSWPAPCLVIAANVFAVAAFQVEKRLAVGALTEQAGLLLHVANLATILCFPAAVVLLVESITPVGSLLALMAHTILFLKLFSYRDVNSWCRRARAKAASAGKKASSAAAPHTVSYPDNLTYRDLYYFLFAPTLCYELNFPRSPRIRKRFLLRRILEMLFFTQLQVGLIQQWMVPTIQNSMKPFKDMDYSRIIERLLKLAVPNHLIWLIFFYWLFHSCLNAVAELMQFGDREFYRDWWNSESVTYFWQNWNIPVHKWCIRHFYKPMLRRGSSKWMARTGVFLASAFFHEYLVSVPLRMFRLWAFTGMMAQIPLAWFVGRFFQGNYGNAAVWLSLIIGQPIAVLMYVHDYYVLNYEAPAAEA
Assay type: biochemical
Procedure: The enzyme preparation used in this assay is a membrane preparation from Sf9 cells overexpressing human (His)6DGAT1. During all steps samples were chilled to 4° C. Sf9 cells expressing human (His)6DGAT1 were thawed at RT and re-suspended at a 10:1 ratio (mL buffer/g of cells) in 50 mM HEPES, 1× Complete Protease Inhibitor, pH 7.5. The re-suspended pellet was homogenized for 1 min using a Brinkman PT 10/35 homogenizer with a 20 mm generator. Cells were lysed using Avestin Emulsiflex (chilled to 4° C.) at 10000-15000 psi. Lysate was centrifuged at 100,000×g for 1 h at 4° C. Supernatant was removed and pellets were re-suspended in 50 mM HEPES, 1× Complete Protease Inhibitor, pH 7.5 at ⅙ the volume of supernatant. Re-suspended pellets were pooled and homogenized with 10 strokes of a Glas-Col motor driven teflon pestle on setting 70. The protein concentration of the membrane preparation was quantified using BCA protein assay with 1% SDS. The membrane preparation was aliquoted, frozen on dry ice, and stored at −80° C.
For 50 mL, 25 mL of 0.2 M HEPES stock buffer, 0.5 mL of 1 M MgCl2 (5 mM final concentration), and 24.5 mL of milli-Q H20 are added to the 55 mL Wheaton Potter-Elvehjem homogenizer. Enzyme preparation (0.1 mL) is added to buffer and the mixture is homogenized with 5 strokes on ice using the Glas-Col variable speed homogenizer system on setting 70.
For 50 mL, 0.5 mL 10 mM diolein is added to 9.5 mL of EtOH in a 50 mL Falcon screw cap conical centrifuge tube. Five mL of 10 mM sodium acetate pH 4.5 is added followed by 0.5 mL of 10 mM oleoyl-CoA. Finally, the remaining 4.5 mL of 10 mM sodium acetate pH 4.5 is added followed by 30 mL of milli-Q H2O. The solution should be gently agitated by hand to induce mixing. The final concentrations of EtOH and sodium acetate are 20% and 2 mM, respectively.
Dry compounds are dissolved in the appropriate volume of DMSO to a final concentration of 10 mM. A 10-point, 3-fold dose response is used to evaluate compound potency. All dilutions are performed in DMSO in a Greiner 384-well microplate. • 1. 2 μL of compound in DMSO is added to the appropriate wells. 2 μL of DMSO is added to 100% activity and 100% inhibition controls. • 2. 25 μL of enzyme mix is added to all wells and plate(s) are incubated for 10 min at RT. • 3. 10 μL of 20% acetic acid quench is added to 100% inhibition control wells. Plate(s) are vortexed using Troemner multi-tube vortexer (setting 7 for 10 sec). • 4. 25 μL of substrate mix is added to all wells. Plate(s) are vortexed using Troemner multi-tube vortexer (setting 7 for 10 sec). Plate(s) are incubated for 30 min at RT. • 5. 10 μL of 20% acetic acid quench is added to all wells. Plate(s) are vortexed using Troemner multi-tube vortexer (setting 7 for 10 sec). • 6. 50 μL of 1-butanol w/ glyceryl tripalmitoleate internal standard is added to all wells. • 7. Plate(s) are sealed with super pierce strong plate sealer using the thermo-sealer.
8. Plate(s) are vortexed using Troemner multi-tube vortexer (setting 10 for 5 min). • 9. Plate(s) are centrifuged at 162×g (1000 rpm for GH-3.8 rotor) for 5 min using Beckman GS-6R tabletop centrifuge.
Samples were analyzed by LC/MS/MS using a Waters 1525μ LC and Quattro Micro API MS. Where indicated, tripalmitolein was used as an internal standard to control for instrument variation.
Data is converted to % inhibition prior to curve fitting using the following equation: […]

SMILES	IC50 [nM]
Cc1cncc(-c2nnc(-c3ccc4nc(-c5c(Cl)cccc5Cl)[nH]c4c3)o2)c1 [Example 1-15, 2-(2,6-Dichloro-phenyl)-6-[5-(5-methyl-pyridin-3-yl)-[1,3,4]oxadiazol-2-yl]-1H-benzoimidazole]	2300
Clc1cccc(Cl)c1-c1nc2ccc(-c3nc(-c4ccccc4)c(-c4ccccc4)o3)cc2[nH]1 [Example 1-24, 2-(2,6-Dichloro-phenyl)-6-(4,5-diphenyl-oxazol-2-yl)-1H -benzoimidazole]	> 10000
Cc1nc(-c2ccc3nc(-c4c(Cl)cccc4Cl)[nH]c3c2)oc1-c1ccc(Cl)cc1 [Example 1-25, 6-[5-(4-Chlorophenyl)-4-methyl-oxazol-2-yl]-2-(2,6-dichlorophenyl)-1H-benzoimidazole]	4700
Clc1cccc(Cl)c1-c1nc2ccc(-c3nnc(Nc4cccnc4)o3)cc2[nH]1 [Example 1-29, {5-[2-(2,6-Dichloro-phenyl)-3H-benzoimidazol-5-yl]-[1,3,4]oxadiazol-2-yl}-pyridin-3-yl-amine]	400
Clc1cccc(Cl)c1-c1nc2ccc(-c3nnc(N4CCCC4)o3)cc2[nH]1 [Example 1-34, 2-(2,6-Dichloro-phenyl)-6-(5-pyrrolidin-1-yl-[1,3,4]oxadiazol-2-yl)-1H-benzoimidazole]	> 10000
Cc1ccc(Nc2nnc(-c3ccc4nc(-c5c(Cl)cccc5Cl)[nH]c4c3)o2)cn1 [Example 1-38, {5-[2-(2,6-Dichloro-phenyl)-3H-benzoimidazol-5-yl]-[1,3,4]oxadiazol-2-yl}-(6-methyl-pyridin-3-yl)-amine]	54
Clc1cc(Nc2nnc(-c3ccc4nc(-c5c(Cl)cccc5Cl)[nH]c4c3)o2)ccn1 [Example 1-43, (2-Chloro-pyridin-4-yl)-{5-[2-(2,6-dichloro-phenyl)-3H-benzoimidazol-5-yl]-[1,3,4]oxadiazol-2-yl}-amine]	80
N#Cc1cccc(Nc2nnc(-c3ccc4nc(-c5c(Cl)cccc5Cl)[nH]c4c3)o2)c1 [Example 1-51, 3-{5-[2-(2,6-Dichloro-phenyl)-3H-benzoimidazol-5-yl]-[1,3,4]oxadiazol-2-ylamino}-benzonitrile]	310
Cc1cc(CCC(=O)O)cc(C)c1-c1nc2ccc(-c3nnc(Nc4cccc(Cl)c4)o3)cc2[nH]1 [Example 1-59, 3-(4-{6-[5-(3-Chlorophenylamino)-[1,3,4]oxadiazol-2-yl]-1H-benzoimidazol-2-yl}-3,5-dimethylphenyl)-propionic acid]	9
COc1ccc(-c2nnc(-c3ccc4nc(-c5c(C)cc(CC(C)(C)C(=O)O)cc5C)[nH]c4c3)o2)cc1 [Example 1-62, 3-(4-{5-[5-(4-Methoxy-phenyl)-[1,3,4]oxadiazol-2-yl]-1H-benzoimidazol-2-yl}-3,5-dimethyl-phenyl)-2,2-dimethyl-propionic acid]	15
